Laboratory results reported in PMC9271048, “Probing strigolactone perception mechanisms with rationally designed small-molecule agonists stimulating germination of root parasitic weeds” (Nature Communications, 2022).
Like-named read-outs stand apart in the source and are kept apart here.

How the values were obtained:
[1] = Chemical reactivity analysis (HPLC, methanol/PBS pH 7.4); assay type: physicochemical; conditions: for half-life at 0.5 mM: methanol/phosphate-buffered saline mixture, Supplementary Fig. 10 source data, methanol/PBS pH 7.4, 26 °C, read-out: half-life time (t1/2), source data average (converted)
Method: Chemical reactivity is an important factor in the bioactivity of natural and synthetic SLs.
One hundred twenty microliters of sample solution was added to a solution of PBS (10 mM, pH 7.4, 810 μL) and methanol (270 μL). The solution was stirred vigorously for 30 s and then transferred to HPLC vial, and the vial was stored at 26 ± 1 °C. […] The analytical column was Extend-C18 (4.6 mm × 150 mm × 5 μm). The mobile phases were CH3CN and H2O (containing 0.1% HCO2H), VCH3CN:VH2O = 50:50, with a flow rate of 1 mL/min, and an injection volume of 5 μL. The percentage of remaining compounds in the solution was calculated from the peak area. The half-life times (t1/2) of samples were calculated.

[2] = test system: PaKAI2s (5 KAI2 protein homologs in P. aegyptiaca); experiment: YLG-based competition assay on KAI2 protein homologs of P. aegyptiaca; assay type: biochemical, Phelipanche aegyptiaca; conditions: Supplementary Fig. 27
Description: (§1) In P. aegyptiaca, 5 KAI2s have been proposed as the SL receptors for the regulation of seed germination. […] The high sequence similarity may explain the consistency of these compounds in inducing germination in both S. hermonthica and P. aegyptiaca.
(§2) The excitation and emission wavelengths of YLG are 480 and 520 nm, respectively. We used a fluorescence spectrophotometer (CARY Eclipse) to detect the fluorescence intensity change of YLG during the enzymatic hydrolysis assay process. All the testing compounds and YLG were dissolved in DMSO and prepared as stock solutions just before use. […] The changes of fluorescence at 520 nm of each well were recorded every 1 min for 30 min. Using the reaction mixture without adding enzyme and tested compounds as the background control. After subtracting the background hydrolysis, a linear fluorescence increase in 8 min was used for further inspection. The IC50 values were determined via fitting relative inhibition percentages with the varying concentrations of compounds in Microsoft Excel.
(§3) Supplementary Fig. 27. Binding of compounds 4a, (R)- and (S)-4a, and 4g-i to the HTL proteins in S. hermonthica and KAI2 protein homologs in P. aegyptiaca. In the competitive inhibitory activity assay, YLG (3 µM) was used as the fluorogenic substrate. Error bar indicates SD (n = 3 biologically independent experiments).
(§4) (1 picture or pasted object on this page, not shown here)

ShHTL7 = ShHTL7 (Striga hermonthica, UniProt A0A0M3PNA2); experiment: biochemical; assay type: binding
How it was run: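 Surface plasmon resonance was run at 25 °C on ShHTL7 immobilized by amine coupling, using phosphate-buffered saline with 0.05% P20 and 0.5% DMSO. Each injection had 1 min association and 1 min dissociation, with a 50 μM screen followed by concentration series. KD was derived by kinetic analysis or steady-state affinity.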

[3] = test system: ShHTLs (10 HTL proteins in S. hermonthica); experiment: YLG-based competition assay on HTL proteins of S. hermonthica; assay type: biochemical, Striga hermonthica; conditions: Supplementary Fig. 27
Description: as §1, §2, §3, §4

[4] = KAI2C, YLG competition, read-out: IC50, replicate 1
[5] = KAI2C, YLG competition, read-out: IC50, replicate 2
[6] = KAI2C, YLG competition, read-out: IC50, replicate 3
[7] = KAI2C, average of 3 replicates, read-out: IC50, average
[8] = KAI2d1, YLG competition, read-out: IC50, replicate 1
[9] = KAI2d1, YLG competition, read-out: IC50, replicate 2
[10] = KAI2d1, YLG competition, read-out: IC50, replicate 3
[11] = KAI2d1, average of 3 replicates, read-out: IC50, average
[12] = KAI2d2, YLG competition, read-out: IC50, replicate 1
[13] = KAI2d2, YLG competition, read-out: IC50, replicate 2
[14] = KAI2d2, YLG competition, read-out: IC50, replicate 3
[15] = KAI2d2, average of 3 replicates, read-out: IC50, average
[16] = KAI2d3, YLG competition, read-out: IC50, replicate 1
[17] = KAI2d3, YLG competition, read-out: IC50, replicate 2
[18] = KAI2d3, YLG competition, read-out: IC50, replicate 3
[19] = KAI2d3, average of 3 replicates, read-out: IC50, average
[20] = KAI2d4, YLG competition, read-out: IC50, replicate 1
[21] = KAI2d4, YLG competition, read-out: IC50, replicate 2
[22] = KAI2d4, YLG competition, read-out: IC50, replicate 3
[23] = KAI2d4, average of 3 replicates, read-out: IC50, average
[24] = ShHTL2, YLG competition, read-out: IC50, replicate 1
[25] = ShHTL2, YLG competition, read-out: IC50, replicate 2
[26] = ShHTL2, YLG competition, read-out: IC50, replicate 3
[27] = ShHTL2, average of 3 replicates, read-out: IC50, average
[28] = ShHTL3, YLG competition, read-out: IC50, replicate 1
[29] = ShHTL3, YLG competition, read-out: IC50, replicate 2
[30] = ShHTL3, YLG competition, read-out: IC50, replicate 3
[31] = ShHTL3, average of 3 replicates, read-out: IC50, average
[32] = ShHTL4, YLG competition, read-out: IC50, replicate 1
[33] = ShHTL4, YLG competition, read-out: IC50, replicate 2
[34] = ShHTL4, YLG competition, read-out: IC50, replicate 3
[35] = ShHTL4, average of 3 replicates, read-out: IC50, average
[36] = ShHTL5, YLG competition, read-out: IC50, replicate 1
[37] = ShHTL5, YLG competition, read-out: IC50, replicate 2
[38] = ShHTL5, YLG competition, read-out: IC50, replicate 3
[39] = ShHTL5, average of 3 replicates, read-out: IC50, average
[40] = ShHTL6, YLG competition, read-out: IC50, replicate 1
[41] = ShHTL6, YLG competition, read-out: IC50, replicate 2
[42] = ShHTL6, YLG competition, read-out: IC50, replicate 3
[43] = ShHTL6, average of 3 replicates, read-out: IC50, average
[44] = ShHTL8, YLG competition, read-out: IC50, replicate 1
[45] = ShHTL8, YLG competition, read-out: IC50, replicate 2
[46] = ShHTL8, YLG competition, read-out: IC50, replicate 3
[47] = ShHTL8, average of 3 replicates, read-out: IC50, average
[48] = ShHTL9, YLG competition, read-out: IC50, replicate 1
[49] = ShHTL9, YLG competition, read-out: IC50, replicate 2
[50] = ShHTL9, YLG competition, read-out: IC50, replicate 3
[51] = ShHTL9, average of 3 replicates, read-out: IC50, average
[52] = ShHTL10, YLG competition, read-out: IC50, replicate 1
[53] = ShHTL10, YLG competition, read-out: IC50, replicate 2
[54] = ShHTL10, YLG competition, read-out: IC50, replicate 3
[55] = ShHTL10, average of 3 replicates, read-out: IC50, average
[56] = ShHTL11, YLG competition, read-out: IC50, replicate 1
[57] = ShHTL11, YLG competition, read-out: IC50, replicate 2
[58] = ShHTL11, YLG competition, read-out: IC50, replicate 3
[59] = ShHTL11, average of 3 replicates, read-out: IC50, average

ShHTL7, sequence (A0A0M3PNA2 entry or part of it): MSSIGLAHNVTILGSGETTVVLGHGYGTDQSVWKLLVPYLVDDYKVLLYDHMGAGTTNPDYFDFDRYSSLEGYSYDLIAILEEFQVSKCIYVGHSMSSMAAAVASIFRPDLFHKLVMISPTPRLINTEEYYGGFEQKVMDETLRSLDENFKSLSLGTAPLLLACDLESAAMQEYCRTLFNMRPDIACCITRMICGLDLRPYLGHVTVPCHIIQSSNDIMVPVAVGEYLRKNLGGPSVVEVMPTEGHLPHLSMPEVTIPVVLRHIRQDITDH

With CC1=CC(OC(=O)N2CCN(C(=O)COc3ccc(Br)cc3C)CC2)CC1=O (stereo not drawn) [4g] the “reactivity in methanol/PBS” value ([1]; 1:3 methanol and PBS (10 mM) pH 7.4) was “no apparent hydrolysis was observed in 6 days”, the half-life at 0.5 mM [1] was greater than 144 h and the IC50 [2, 4] was 53.3 µM. The IC50 [2, 5] was 49.1 µM, the IC50 [2, 6] was 43 µM and the IC50 [2, 7] was 48.5 µM. For the same molecule, the IC50 [2, 8] was 27.1 µM, the IC50 [2, 9] was 24.4 µM and the IC50 [2, 10] was 23.2 µM. It also gave an IC50 [2, 11] of 24.9 µM, an IC50 [2, 12] of 62.3 µM and an IC50 [2, 13] of 72.7 µM. For the same molecule, the IC50 [2, 14] was 74.9 µM, the IC50 [2, 15] was 70 µM and the IC50 [2, 16] was 57.1 µM. For the same molecule, the IC50 [2, 17] was 36.6 µM, the IC50 [2, 18] was 53.9 µM and the IC50 [2, 19] was 49.2 µM. For the same molecule, the IC50 [2, 20] was 77.3 µM, the IC50 [2, 21] was 85.3 µM and the IC50 [2, 22] was 76.1 µM. For the same molecule, the IC50 [2, 23] was 79.6 µM, the Kd (ShHTL7) was 34.8 ± 3.9 µM and the IC50 [3, 24] was 65.2 µM. The IC50 [3, 25] was 66 µM, the IC50 [3, 26] was 64.5 µM and the IC50 [3, 27] was 65.2 µM. It also gave an IC50 [3, 28] of 40.5 µM, an IC50 [3, 29] of 33.3 µM and an IC50 [3, 30] of 28.5 µM. The IC50 [3, 31] was 34.1 µM, the IC50 [3, 32] was 19.2 µM and the IC50 [3, 33] was 17.8 µM. For the same molecule, the IC50 [3, 34] was 16.1 µM, the IC50 [3, 35] was 17.7 µM and the IC50 [3, 36] was 40.1 µM. It also gave an IC50 [3, 37] of 35.7 µM, an IC50 [3, 38] of 41.8 µM and an IC50 [3, 39] of 39.2 µM. It also gave an IC50 [3, 40] of 53 µM, an IC50 [3, 41] of 37.4 µM and an IC50 [3, 42] of 61.5 µM. The IC50 [3, 43] was 50.6 µM, the IC50 [3, 44] was 61 µM and the IC50 [3, 45] was 62 µM. The IC50 [3, 46] was 51.8 µM, the IC50 [3, 47] was 58.3 µM and the IC50 [3, 48] was 31.2 µM. It also gave an IC50 [3, 49] of 38.7 µM, an IC50 [3, 50] of 46.2 µM and an IC50 [3, 51] of 38.7 µM. The IC50 [3, 52] was 49.6 µM, the IC50 [3, 53] was 54.6 µM and the IC50 [3, 54] was 55.2 µM. It also gave an IC50 [3, 55] of 53.1 µM, an IC50 [3, 56] of 55.9 µM and an IC50 [3, 57] of 54.7 µM. It also gave an IC50 [3, 58] of 58.2 µM and an IC50 [3, 59] of 56.3 µM.

With CC1=C[C@H](OC(=O)N2CCN(C(=O)COc3ccc(Br)cc3C)CC2)OC1=O [(S)-4a] the half-life at 0.5 mM [1] was 7.71 h, the IC50 [2, 4] was 5.99 µM and the IC50 [2, 5] was 5.59 µM. It also gave an IC50 [2, 6] of 5.14 µM, an IC50 [2, 7] of 5.57 µM and an IC50 [2, 8] of 14.8 µM. The IC50 [2, 9] was 11.8 µM, the IC50 [2, 10] was 14.3 µM and the IC50 [2, 11] was 13.6 µM. The IC50 [2, 12] was 41.7 µM, the IC50 [2, 13] was 36.2 µM and the IC50 [2, 14] was 35.4 µM. The IC50 [2, 15] was 37.8 µM, the IC50 [2, 16] was 11.9 µM and the IC50 [2, 17] was 8.47 µM. For the same molecule, the IC50 [2, 18] was 7.99 µM, the IC50 [2, 19] was 9.45 µM and the IC50 [2, 20] was 6.05 µM. For the same molecule, the IC50 [2, 21] was 6.25 µM, the IC50 [2, 22] was 8.45 µM and the IC50 [2, 23] was 6.92 µM. The Kd (ShHTL7; Supplementary Table 7, binding affinities between ShHTL7 and agonists by SPR, read-out: KD/μM) was 0.79 ± 0.06 µM, the IC50 [3, 24] was 44 µM and the IC50 [3, 25] was 49.8 µM. The IC50 [3, 26] was 48.4 µM, the IC50 [3, 27] was 47.4 µM and the IC50 [3, 28] was 16.8 µM. It also gave an IC50 [3, 29] of 15.4 µM, an IC50 [3, 30] of 14.7 µM and an IC50 [3, 31] of 15.7 µM. For the same molecule, the IC50 [3, 32] was 2.17 µM, the IC50 [3, 33] was 2.91 µM and the IC50 [3, 34] was 2.59 µM. The IC50 [3, 35] was 2.56 µM, the IC50 [3, 36] was 5.38 µM and the IC50 [3, 37] was 6.82 µM. It also gave an IC50 [3, 38] of 5.43 µM, an IC50 [3, 39] of 5.88 µM and an IC50 [3, 40] of 9.92 µM. The IC50 [3, 41] was 6.62 µM, the IC50 [3, 42] was 7.62 µM and the IC50 [3, 43] was 8.05 µM. The IC50 [3, 44] was 12 µM, the IC50 [3, 45] was 7.84 µM and the IC50 [3, 46] was 5.8 µM. For the same molecule, the IC50 [3, 47] was 8.54 µM, the IC50 [3, 48] was 10.9 µM and the IC50 [3, 49] was 19 µM. The IC50 [3, 50] was 16.2 µM, the IC50 [3, 51] was 15.4 µM and the IC50 [3, 52] was 11.7 µM. The IC50 [3, 53] was 11.6 µM, the IC50 [3, 54] was 12.8 µM and the IC50 [3, 55] was 12 µM. The IC50 [3, 56] was 6.48 µM, the IC50 [3, 57] was 5.76 µM and the IC50 [3, 58] was 3.77 µM. It also gave an IC50 [3, 59] of 5.34 µM.
